In article PMC9281306 (ACS Omega, 2022):
Like-named read-outs stand apart in the source and are kept apart here. Blank lines part the entries; values can stand above or below the compound they belong to. Where a SMILES comes first, the peptide text is derived from it. [ ]: non-standard residue; d: D form.

How the values were obtained:
[1] = test system: Mabs ATCC 19977R rough morphotype; assay: Mabs microdilution antimicrobial assay with purified peptides; assay type: cell-based, Mycobacterium abscessus; conditions: purified peptide, MHB with EDTA 100 μM, 96 h, 37 °C, OD600, three independent experiments
[2] = test system: Mabs ATCC 19977S smooth morphotype; assay: as above; assay type: cell-based, Mycobacterium abscessus; conditions: purified peptide, MHB with EDTA 100 μM, 96 h, 37 °C, OD600, three independent experiments
[3] = test system: human red blood cell (hRBC); assay: hRBC hemolytic assay; assay type: cell-based
MRSA USA300 = assay: Cross-inhibitory activity assay; assay type: cell-based, Staphylococcus aureus; conditions: MHB, 24 h, 37 °C; EDTA not given
E. coli (ATCC 25922) = assay: Cross-inhibitory activity assay; assay type: cell-based, Escherichia coli; conditions: MHB, 24 h, 37 °C; EDTA not given
[4] = test system: P. aeruginosa (ATCC 27853); assay: Cross-inhibitory activity assay; assay type: cell-based, Pseudomonas aeruginosa; conditions: MHB, 24 h, 37 °C; EDTA not given
[5] = test system: E. coli urinary tract infection clinical isolates; conditions: MIC in MHB, 22 h, 37 °C, triplicate

Compound: Triton X-100 [reference compound]
hRBC lysis by positive control ([3]; 1%, 4% hRBC in saline, 37 °C, OD475): complete hRBC lysis

Compound: CC(C)C[C@@H](NC(=O)[C@@H](C)NC(=O)CNC(=O)[C@@H](CC(C)C)NC(=O)[C@@H](CCCCN)NC(=O)[C@@H](CCCNC(=N)N)NC(=O)[C@@H](CCCNC(=N)N)NC(=O)[C@H](CC(N)=O)NC(=O)[C@H](Cc1ccc(O)cc1)NC(=O)[C@@H](CCCNC(=N)N)NC(=O)[C@H](C)NC(=O)[C@H](CO)NC(=O)[C@@H](CCCNC(=N)N)NC(=O)CNC(=O)[C@@H](N)Cc1ccc(O)cc1)C(=O)N[C@@H](CO)C(=O)NCC(N)=O [ASU2059] (H-YG[dR]SA[dR]YN[dR][dR][dK][dL]G[dA][dL]SG-NH2)
Mabs ATCC19977R MIC [1]: 256 µM | Mabs ATCC19977S MIC [2]: 256 µM

Compound: CC1(C)S[C@@H]2[C@H](NC(=O)[C@H](N)c3ccccc3)C(=O)N2[C@H]1C(=O)O [Ampicillin]
Ampicillin susceptibility ([5]; E. coli clinical isolate 23): susceptible | Ampicillin susceptibility ([5]; E. coli clinical isolate 36): resistant | Ampicillin susceptibility ([5]; E. coli clinical isolate 97): resistant | Ampicillin susceptibility ([5]; E. coli clinical isolate 98): resistant

Second part, led by results:

Mabs ATCC19977R MIC [1]: 256 µM | Mabs ATCC19977S MIC [2]: 256 µM
Compound: CC(C)C[C@@H](NC(=O)[C@@H](C)NC(=O)[C@@H](CCCCN)NC(=O)[C@@H](CCCNC(=N)N)NC(=O)[C@H](Cc1ccccc1)NC(=O)[C@H](CCC(N)=O)NC(=O)[C@H](CC(N)=O)NC(=O)[C@@H](NC(=O)[C@@H](CCCCN)NC(=O)[C@@H](CCCNC(=N)N)NC(=O)[C@H](C)NC(=O)[C@@H](CCCCN)NC(=O)[C@H](CO)NC(=O)[C@@H](CC(C)C)NC(=O)CNC(=O)[C@H](Cc1ccc(O)cc1)NC(=O)[C@H](N)CCCNC(=N)N)C(C)C)C(N)=O [ASU2009] (H-[dR]YG[dL]S[dK]A[dR][dK]VNQF[dR][dK][dA][dL]-NH2)

Mabs ATCC19977R MIC [1]: 256 µM | Mabs ATCC19977S MIC [2]: 256 µM
Compound: CC(C)C[C@@H](NC(=O)[C@@H](C)NC(=O)[C@H](CO)NC(=O)[C@@H](CCCCN)NC(=O)[C@@H](CCCNC(=N)N)NC(=O)[C@@H](CCCNC(=N)N)NC(=O)[C@H](Cc1ccccc1)NC(=O)[C@@H](CC(C)C)NC(=O)[C@H](CC(N)=O)NC(=O)[C@H](Cc1c[nH]cn1)NC(=O)[C@@H]1CCCN1C(=O)[C@H](C)NC(=O)[C@H](CO)NC(=O)[C@@H]1CCCN1C(=O)CNC(=O)[C@@H](NC(=O)[C@H](N)CCCNC(=N)N)C(C)C)C(N)=O [ASU2019] (H-[dR]VGPSAPHN[dL]F[dR][dR][dK]S[dA][dL]-NH2)

MRSA USA300 MIC (MRSA USA300): 8 µM | Mabs ATCC19977R MIC [1]: 256 µM | E. coli ATCC 25922 MIC (E. coli (ATCC 25922)): 4 µM | Mabs ATCC19977S MIC [2]: 8 µM | P. aeruginosa ATCC 27853 MIC [4]: 8 µM
Compound: CC(C)C[C@@H](NC(=O)CNC(=O)[C@H](CO)NC(=O)[C@@H](CCCCN)NC(=O)[C@@H](CCCNC(=N)N)NC(=O)[C@@H](Cc1c[nH]c2ccccc12)NC(=O)[C@@H](CCCNC(=N)N)NC(=O)[C@H](Cc1ccccc1)NC(=O)[C@H](CC(N)=O)NC(=O)[C@H](Cc1ccc(O)cc1)NC(=O)[C@@H](CCCNC(=N)N)NC(=O)[C@H](C)NC(=O)[C@H](CO)NC(=O)[C@@H](Cc1c[nH]c2ccccc12)NC(=O)[C@@H](CCCNC(=N)N)NC(=O)CNC(=O)[C@@H](N)C(C)C)C(N)=O [ASU2060] (H-VG[dR][dW]SA[dR]YNF[dR][dW][dR][dK]SG[dL]-NH2)
hRBC hemolysis ([3]; 32 µM): less than 1%

MRSA USA300 MIC (MRSA USA300): >32 µM | Mabs ATCC19977R MIC [1]: >256 µM | E. coli ATCC 25922 MIC (E. coli (ATCC 25922)): 16 µM | Mabs ATCC19977S MIC [2]: 32 µM | P. aeruginosa ATCC 27853 MIC [4]: >32 µM
Compound: CC(C)C[C@@H](NC(=O)CNC(=O)[C@@H](Cc1c[nH]c2ccccc12)NC(=O)[C@@H](CCCNC(=N)N)NC(=O)[C@@H](N)CCC(N)=O)C(=O)N[C@@H](CO)C(=O)N[C@H](CC(C)C)C(=O)N[C@@H](C)C(=O)N1CCC[C@H]1C(=O)N[C@@H](Cc1ccc(O)cc1)C(=O)N[C@H](CCCCN)C(=O)N[C@@H](CC(N)=O)C(=O)N[C@@H](Cc1ccccc1)C(=O)N[C@H](CCCNC(=N)N)C(=O)N[C@H](CCCNC(=N)N)C(=O)N[C@H](CC(C)C)C(=O)N[C@@H](CO)C(N)=O [ASU2056] (H-Q[dR][dW]G[dL]S[dL]APY[dK]NF[dR][dR][dL]S-NH2)
